Read-outs that look alike come from different tables or passages of the source.

Experiment [1] relates to KYSE-150 esophageal carcinoma cell line. The experiment in a line: In vitro cell-based assay: BrdU cell proliferation ELISA. The note with it: KYSE-150 cells, BrdU incorporation after 168 hr of compound incubation, read-out: Cellular IC50. The arrangement: species or system human. How it is done:
Cell lines tested include the JMJD2C gene amplified cell line KYSE-150. This is a quantitative ELISA assay measuring DNA incorporation of BrdU during S-phase as a direct readout of cellular proliferation.
Assay Principle: This is a colorimetric immunoassay for the quantification of cell proliferation. Cells treated for 168 hr with test compounds are assayed for their ability to go through S-phase as a measure of their proliferative potential.
Assay Method: The human KYSE-150 (SMAD4 mut, TP53 mut) esophageal carcinoma cell line was seeded at 2,000 cells/well on a 96-well tissue culture treated plate. After an overnight incubation, cells were treated with compound in an 11-point dilution series with final concentrations ranging from 100 μM to 2 nM. Cells were then incubated in the presence of compound for 168 hr. After compound incubation the cells were assayed using a BrdU Cell Proliferation ELISA (Roche). The cells were first incubated with BrdU labeling reagent for 2 hr. After 2 hr, the BrdU incorporated cells were fixed and denatured, probed with an anti-BrdU-Peroxidase antibody for 1.5 hr and washed. Finally, a tetramethylbenzidine peroxidase substrate was added to each well for 15 min. followed by a H2SO4 stop solution. The plate was read at 450 nm, and the raw optical density data was transferred into XLFit (IDBS) for IC50 calculation using the formula: fit=(D+((Vmax*(x^n))/((x^n)+(Km^n)))).
Table 4 provides the cellular IC50 values of various compounds disclosed herein.
(In an ELISA, binding on a coated surface is turned into a signal by an enzyme label.)

A further experiment addresses JMJD2C (Homo sapiens (Human), UniProt Q9H3R0). In words: In vitro enzyme inhibition assay (JMJD2C TR-FRET). In kind it is biochemical. The note with it: 0.3 nM JMJD2C, 300 nM H3K9me3-biotin peptide, 2 μM alpha-ketoglutaric acid. How it is done: This assay determines the ability of a test compound to inhibit JMJD2C demethylase activity. Baculovirus expressed JMJD2C (GenBank Accession #BC143571, AA 2-372) was purchased from BPS Bioscience (Cat#50105).
The ability of test compounds to inhibit the activity of JMJD2C was determined in 384-well plate-format under the following reaction conditions: 0.3 nM JMJD2C, 300 nM H3K9me3-biotin labeled peptide (Anaspec cat #64360), 2 μM alpha-ketoglutaric acid in assay buffer of 50 mM HEPES, pH 7.3, 0.005% Brij35, 0.5 mM TCEP, 0.2 mg/ml BSA, 50 μM sodium L-ascorbate, and 2 μM ammonium iron(II) sulfate. Reaction product was determined quantitatively by TR-FRET after the addition of detection reagent Phycolink Streptavidin-allophycocyanin (Prozyme) and Europium-anti-di-methylated histone H3 lysine 9 (H3K9me2) antibody (PerkinElmer) in the presence of 5 mM EDTA in LANCE detection buffer (PerkinElmer) at a final concentration of 50 nM and 1 nM, respectively.
The assay reaction was initiated by the following: 2 μl of the mixture of 900 nM H3K9me3-biotin labeled peptide and 6 μM alpha-ketoglutaric acid with 2 μl of 11-point serial diluted inhibitor in 3% DMSO were added to each well of the plate, followed by the addition of 2 μl of 0.9 nM JMJD2C to initiate the reaction. The reaction mixture was incubated at room temperature for 30 min, and terminated by the addition of 6 μl of 5 mM EDTA in LANCE detection buffer containing 100 nM Phycolink Streptavidin-allophycocyanin and 2 nM Europium-anti-H3K9me2 antibody. Plates were read by EnVisionMultilabel Reader in TR-FRET mode (excitation at 320 nm, emission at 615 nm and 665 nm) after 1 hr incubation at room temperature. A ratio was calculated (665/615) for each well and fitted to determine inhibition constant (IC50).
The ability of the compounds disclosed herein to inhibit demethylase activity was quantified and the respective IC50 value was determined. Table 3 provides the IC50 values of various compounds disclosed herein.

Sequence of JMJD2C (Q9H3R0 2-372): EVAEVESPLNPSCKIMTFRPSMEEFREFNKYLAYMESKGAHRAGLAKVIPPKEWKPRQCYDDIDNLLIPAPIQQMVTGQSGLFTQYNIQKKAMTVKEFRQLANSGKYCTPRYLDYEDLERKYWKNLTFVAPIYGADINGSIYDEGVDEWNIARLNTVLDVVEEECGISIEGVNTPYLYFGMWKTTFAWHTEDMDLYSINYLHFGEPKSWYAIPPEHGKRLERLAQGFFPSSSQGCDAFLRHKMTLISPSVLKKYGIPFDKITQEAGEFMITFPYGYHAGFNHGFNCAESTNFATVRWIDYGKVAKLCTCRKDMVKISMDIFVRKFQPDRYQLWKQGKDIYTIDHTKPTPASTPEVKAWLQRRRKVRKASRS

Take “2-(4-{[4-(4-amino-piperidin-1-yl)-phenyl]-methyl-amino}-phenoxy)-pyrido[3,4-d]pyrimidin-4-ol [Example 23]”: the half-inhibitory concentration (IC50) (in general, the point on the concentration scale where inhibition reaches its midpoint) in experiment [1] was in the range of 1000 to 10000 nM; against JMJD2C, 100 to 1000 nM.
For the compound `CC(C)c1ccc(N(c2ccc(Oc3nc(O)c4ccncc4n3)cc2)C2CCOCC2)cc1` [Example 118, 2-(4-((4-isopropylphenyl)(tetrahydro-2H-pyran-4-yl)amino)phenoxy)pyrido[3,4-d]pyrimidin-4-ol], the concentration for half-maximal inhibition (IC50) in experiment [1] (Homo sapiens) was in the range of 1000 to 10000 nM.
In the case of `CC(C)c1ccc(N(c2ccc(Oc3nc(O)c4ccncc4n3)cc2)C2CCN(C)CC2)cc1` [Example 119, 2-(4-((4-isopropylphenyl)(1-methylpiperidin-4-yl)amino)phenoxy)pyrido[3,4-d]pyrimidin-4-ol], the figures for the IC50 (in experiment [1] (Homo sapiens); against JMJD2C) were above 10000 nM and at most 100 nM, respectively.
Regarding `CCCN(c1ccc(Oc2nc(O)c3ccncc3n2)cc1)c1ccc(C(C)C)cc1` [Example 120, 2-(4-((4-isopropylphenyl)(propyl)amino)phenoxy)pyrido[3,4-d]pyrimidin-4-ol], the results for the IC50 (in experiment [1] (Homo sapiens); against JMJD2C) were 1000 to 10000 nM and 100 to 1000 nM, respectively.
For `CC(C)c1ccc(Nc2ccc(Oc3nc(O)c4ccncc4n3)cc2)cc1` [Example 121, 2-(4-((4-isopropylphenyl)amino)phenoxy)pyrido[3,4-d]pyrimidin-4-ol] the same measures were 1000 to 10000 nM and at most 100 nM.
On to `CC(C)c1ccc(N(c2ccc(Oc3nc(O)c4ccncc4n3)cc2)C2CCCN(C)C2)cc1` (stereo not drawn) [Example 124, 2-(4-((4-isopropylphenyl)(1-methylpiperidin-3-yl)amino)phenoxy)pyrido[3,4-d]pyrimidin-4-ol], for which the IC50 in experiment [1] (Homo sapiens) was 1000 to 10000 nM; at JMJD2C, at most 100 nM.
For `CC(C)c1ccc(N(c2ccc(Oc3nc(O)c4ccncc4n3)cc2)C2CCCC2)cc1` [Example 125, 2-(4-(cyclopentyl(4-isopropylphenyl)amino)phenoxy)pyrido[3,4-d]pyrimidin-4-ol], the IC50 was at most 100 nM in experiment [1] (Homo sapiens) and 1000 to 10000 nM on JMJD2C.
For `CC(C)c1ccc(N(c2ccc(Oc3nc(O)c4ccncc4n3)cc2)C2CCNC2)cc1` (stereo not drawn) [Example 126, 2-(4-((4-isopropylphenyl)(pyrrolidin-3-yl)amino)phenoxy)pyrido[3,4-d]pyrimidin-4-ol] the same measures were at most 100 nM and at most 100 nM.
For `CC(C)c1ccc(N(c2ccc(Oc3nc(O)c4ccncc4n3)cc2)C2CCN(C)C2)cc1` (stereo not drawn) [Example 127, 2-(4-((4-isopropylphenyl)(1-methylpyrrolidin-3-yl)amino)phenoxy)pyrido[3,4-d]pyrimidin-4-ol], the IC50 is above 10000 nM in experiment [1] (Homo sapiens) and at most 100 nM against JMJD2C.
As to `Cc1ccc2c(c1)CCN2c1ccc(Oc2nc(O)c3ccncc3n2)cc1` [Example 128], the IC50 (in experiment [1] (Homo sapiens); against JMJD2C) was at most 100 nM in each case.
As for `Cc1ccc2c(ccn2-c2ccc(Oc3nc(O)c4ccncc4n3)cc2)c1` [Example 129, 2-(4-(5-methyl-1H-indol-1-yl)phenoxy)pyrido[3,4-d]pyrimidin-4-ol], the half-maximal inhibitory concentration (IC50) was 1000 to 10000 nM in experiment [1] (Homo sapiens) and at most 100 nM at JMJD2C.
Take `CC(C)c1ccc(N(c2ccc(Oc3nc(O)c4ccncc4n3)cc2)C2CCCNC2)cc1` (stereo not drawn) [Example 130, 2-(4-((4-isopropylphenyl)(piperidin-3-yl)amino)phenoxy)pyrido[3,4-d]pyrimidin-4-ol]: the IC50 in experiment [1] (Homo sapiens) is above 10000 nM; on JMJD2C, at most 100 nM.
For `Cc1cc(Oc2nc(O)c3ccncc3n2)ccc1N(C)c1ccc(C(C)C)cc1` [Example 131, 2-(4-((4-isopropylphenyl)(methyl)amino)-3-methylphenoxy)pyrido[3,4-d]pyrimidin-4-ol] the same measures were above 10000 nM and 100 to 1000 nM.
For `CC(C)N1CCN(c2cccc(N(C)c3ccc(Oc4nc(O)c5ccncc5n4)cc3)c2)CC1` [Example 132, 2-(4-((3-(4-isopropylpiperazin-1-yl)phenyl)(methyl)amino)phenoxy)pyrido[3,4-d]pyrimidin-4-ol], the IC50 in experiment [1] (Homo sapiens) lay within 100 to 1000 nM.
As for `CN1CCN(c2cccc(N(C)c3ccc(Oc4nc(O)c5ccncc5n4)cc3C(F)(F)F)c2)CC1` [Example 133, 2-(4-(methyl(3-(4-methylpiperazin-1-yl)phenyl)amino)-3-(trifluoromethyl)phenoxy)pyrido[3,4-d]pyrimidin-4-ol], the IC50 is 1000 to 10000 nM in experiment [1] (Homo sapiens) and at most 100 nM on JMJD2C.
Take `Cc1cc(Oc2nc(O)c3ccncc3n2)ccc1N(C)c1cccc(N2CCN(C)CC2)c1` [Example 134, 2-(3-methyl-4-(methyl(3-(4-methyl-piperazin-1-yl)phenyl)amino)phenoxy)pyrido[3,4-d]pyrimidin-4-ol]: the figures for the IC50 (in experiment [1] (Homo sapiens); against JMJD2C) were 1000 to 10000 nM and at most 100 nM, respectively.
Regarding `CCc1ccc(N(C)c2ccc(Oc3nc(O)c4ccncc4n3)cc2)cc1OC` [Example 135, 2-(4-((4-ethyl-3-methoxyphenyl)(methyl)amino)phenoxy)pyrido[3,4-d]pyrimidin-4-ol], the IC50 in experiment [1] (Homo sapiens) was 1000 to 10000 nM; against JMJD2C, 100 to 1000 nM.
`CN1CCN(c2cc(N(C)c3ccc(Oc4nc(O)c5ccncc5n4)cc3)ccc2OCC(F)(F)F)CC1` [Example 136, -(4-(methyl(3-(4-methylpiperazin-1-yl)-4-(2,2,2-trifluoroethoxy)phenyl)amino)phenoxy)pyrido[3,4-d]pyrimidin-4-ol]: the results for the IC50 (in experiment [1] (Homo sapiens); against JMJD2C) were 1000 to 10000 nM and at most 100 nM, respectively.
In the same order, the values of `CCc1ccc(N(C)c2ccc(Oc3nc(O)c4ccncc4n3)cc2)c(OC)c1` [Example 137, 2-(4-((4-ethyl-2-methoxyphenyl)(methyl)amino)phenoxy)pyrido[3,4-d]pyrimidin-4-ol] are above 10000 nM and 100 to 1000 nM.
For the compound `CCN1CCN(c2cccc(N(C)c3ccc(Oc4nc(O)c5ccncc5n4)cc3)c2)CC1` [Example 138, 2-(4-((3-(4-ethylpiperazin-1-yl)phenyl)(methyl)amino)phenoxy)pyrido[3,4-d]pyrimidin-4-ol], the half-inhibitory concentration (IC50) in experiment [1] (Homo sapiens) was 1000 to 10000 nM; against JMJD2C, at most 100 nM.
`CN1CCC(c2cccc(N(C)c3ccc(Oc4nc(O)c5ccncc5n4)cc3)c2)CC1` [Example 140, 2-(4-(methyl(3-(1-methylpiperidin-4-yl)phenyl)amino)phenoxy)pyrido[3,4-d]pyrimidin-4-ol]: the IC50 was 100 to 1000 nM in experiment [1] (Homo sapiens) and at most 100 nM against JMJD2C.
For the compound `CCN(c1ccc(Oc2nc(O)c3ccncc3n2)cc1)c1cccc(N2CCN(C)CC2)c1` [Example 141, 2-(4-(ethyl(3-(4-methylpiperazin-1-yl)phenyl)amino)phenoxy)pyrido[3,4-d]pyrimidin-4-ol], the IC50 (in experiment [1] (Homo sapiens); on JMJD2C) was at most 100 nM throughout.

Source of the values: US10202381B2, “Histone demethylase inhibitors” (CELGENE QUANTICEL RESEARCH, INC., priority 2014, dated 2019).
